Experimental findings from patent US8962580B2, “Chemical modifications of monomers and oligonucleotides with cycloaddition” (Alnylam Pharmaceuticals, Inc., priority 2008, dated 2015) are described below.

For the data set, the system named is firefly luciferase gene. The data set can be described thus: Dual-luciferase assay for RNA interfering evaluation. Format: cell-based. The following applies: for pIC50: read-out: IC 50 Values. The procedure:
1. Dual-Luciferase Assay for RNA Interfering Evaluation
Modified RNAs obtained by solid-phase synthesis and click reactions were evaluated in RNA interfering in dual-luciferase assays. Duplexes were prepared by heating at 95° C. for 2 min and cooling to room temperature for 2 hours in 1X Phosphate buffered saline. (Table 12-14).
The ability of modified siRNAs to suppress gene expression was studied by a dual-luciferase assay using a pGL4 vector (Promega), which contained the Renilla and firefly luciferase genes. The siRNA sequences were designed to target the firefly luciferase gene. Stably transfected HeLa cells were then transfected with the indicated amounts of siRNAs, and the signals of firefly luciferase were normalized to those of renilla luciferase. HeLa SS6 cells were stably transfected with plasmids encoding firefly (target) and Renilla (control) luciferases.
RNA interference methods: Hela cells were grown at 37° C., 5% CO2 in Dulbecco's modified Eagles's medium (DMEM, GIBCO) supplemented with 10% fetal bovine serum (FBS) and 1% antibiotic. The cells were maintained in the exponential growth phase. The cells were then plated in 96-well plates (0.1 mL medium per well) to reach about 90% confluence at transfection. Transfection was allowed to proceed for 24 hr at 37° C. and on day 2 the culture medium was changed to OPTIMEM 1, a reduced serum media (GIBCO). Two luciferase plasmids, Renilla luciferase (pRL-CMV) and firefly luciferase (pGL3) from Promega, were used as control and reporter, respectively. Transfection of siRNAs was carried out with Lipofectamine 2000 (Invitrogen) as described by the manufacturer for adherent cell lines. The final volume was 150 uL per well. On day 2 cells are transfected with, firefly luciferase targeting, siRNA of varying concentrations ranging from 2 pM to 8 nM mediated by Lipofectamine 2000 reagent (Invitrogen). After 24 h, cells were analyzed for both firefly and renilla luciferase expression using a plate luminometer with a delay time of 2 s and an integrate time of 10 s. (VICTOR2, PerkinElmer, Boston, Mass.) and the Dual-Glo Luciferase Assay kit (Promega), FIG. 24. Firefly/renilla luciferase expression ratios were used to determine percent gene silencing relative to untreated (no siRNA) controls. Values generated represent the mean of triplicates.
The screening process began with a primary screen where all the compounds were screened against the parent unmodified duplex as a comparison. […] The final set of compounds was compared to one of our best modifications AD3202 and it can be seen that these compounds match up to AD 3202 in potency, however the exact mechanism by which the Uda modification contributes to improved activity is to be determined through further studies.
Dual HeLa (HeLa cells transfected with PGL4 plasmid for luciferase expression)
Tissue culture medium, trypsin and Lipofectamine-2000—purchased from Invitrogen (Carlsbad, Calif.).
DMEM supplemented with 10% fetal bovine serum, 1% antibiotic solution.
siRNA treatment was performed using Opti-MEM (Invitrogen) containing 1 mg/ml Lipofectamine2000
DMEM without phenol red, Promega Dual Glo Luciferase Assay kit, 0.25% Trypsin (Invitrogen).

[1] abbreviates: Table 13 (Part II), stably transfected HeLa cells, Lipofectamine 2000, 24 h, firefly/renilla luciferase ratio.
[2] abbreviates: Table 12 (Part I), stably transfected HeLa cells, Lipofectamine 2000, 24 h, firefly/renilla luciferase ratio.

pIC50: −log10 of the molar value. Like-named read-outs stand apart in the source and are kept apart here. {L125} = ligand L125 of the publication, structure not given; d = 2'-deoxy (DNA); m = 2'-O-methyl; r = 2'-OH (RNA)

With “AD-1000: parent unmodified siRNA duplex: sense 1000 CUUACGCUGAGUACUUCGAdTdT, antisense 1001 UCGAAGUACUCAGCGUAAGdTdT (sense CUUACGCUGAGUACUUCGATT; antisense UCGAAGUACUCAGCGUAAGTT; sugars from the 5' end r19 d2, backbone not given here) [reference compound]”, the pIC50 is, setting by setting: under setting [1], 9.42; (Table 14 (Part III), stably transfected HeLa cells, Lipofectamine 2000, 24 h, firefly/renilla luciferase ratio) 9.49; (Table 15 (Part IV), selected potent duplexes, secondary screen / head to head comparison) 9.62.
“AD-20156: siRNA duplex: sense 33031.1 CUUACGCUGAGUACUUCGAdT(Uda2p), antisense 1001; Uda2p-3′end (sense CUUACGCUGAGUACUUCGAT; antisense UCGAAGUACUCAGCGUAAGTT; Uda2p 3' end on sense, chemistry not fully specified)”: under setting [1], the pIC50 was 8.93.
As for “AD-20157: siRNA duplex: sense 33032.1 CUUACGCUGAG(Uda)ACUUCGAdT(Uda2p), antisense 1001; U12-->Uda, Uda2p-3′end (sense CUUACGCUGAGUACUUCGAT; antisense UCGAAGUACUCAGCGUAAGTT; U12 Uda, Uda2p 3' end on sense, chemistry not fully specified)”, the “IC 50 Values (nM)” value under setting [1] is “NA—out”.
Take “AD-20158: siRNA duplex: sense 33033.1 C(Uda)UACGCUGAGUACUUCGAdT(Uda2p), antisense 1001; U2-->Uda, Uda2p-3′end (sense CUUACGCUGAGUACUUCGAT; antisense UCGAAGUACUCAGCGUAAGTT; U2 Uda, Uda2p 3' end on sense, chemistry not fully specified)”: the “Fold Increase in activity as compared to parent” value (Table 13 (Part II), parent AD-1000) was 2 fold. The pIC50 under setting [1] was 8.82.
In the case of “AD-20201: siRNA duplex: sense 36862 CUUACGCUGAGUACUUCGAdTdTL125, antisense 1001; 3′ L125 (sense CUUACGCUGAGUACUUCGATT; antisense UCGAAGUACUCAGCGUAAGTT; 3' L125 on sense, chemistry not fully specified)”, under setting [2], the pIC50 was 9.04.
Consider “AD-20202: siRNA duplex: sense 37075 CUUACGCUGAGUACUUCGAdTdT(T1y), antisense 1001; 3′ (Tly) (sense CUUACGCUGAGUACUUCGATTT; antisense UCGAAGUACUCAGCGUAAGTT; 3' (Tly) on sense, chemistry not fully specified)”, for which, under setting [2], the pIC50 was 8.95.
“AD-20203: siRNA duplex: sense 37077 CUUACGCUGAGUACUUCGAdTdT(T31y), antisense 1001; 3′ (T31y) (sense CUUACGCUGAGUACUUCGATT; antisense UCGAAGUACUCAGCGUAAGTT; 3' (T31y) on sense, chemistry not fully specified)”: the pIC50 under setting [2] was 8.85.
For “AD-20321: siRNA duplex: sense 38103.1 AAcGcuGGGcGuuAAucAAdTdTL125 (2′OMe-all Py and 3′ L125), antisense 24599 UUGAUuAACGCCcAGCGUUdTsdT (sense AACGCUGGGCGUUAAUCAATT; antisense UUGAUUAACGCCCAGCGUUTT; sense: DNA at T, 2'-O-methyl at CU, RNA at AG, 3' {L125}, backbone not given here; antisense: sugars from the 5' end rrrrrmrrrrrrmrrrrrrdd, backbone not given here)”, the “IC 50 Values (nM)” value under setting [2] was “out of range”.
